# Results reported in ChEMBL document CHEMBL4340531, “Synthesis and biological evaluation of solithromycin analogs against multidrug resistant pathogens” (Bioorg Med Chem Lett, 2019).
# Legend:
# Enterococcus faecium [1] = test: Antibacterial activity against multi drug resistant Enterococcus faecium NCTC 7171 incubated for 24 hrs by broth dilution method; type: functional; conditions: NCTC 7171, 24 h
# Staphylococcus aureus [2] = test: Antibacterial activity against wild type Staphylococcus aureus ATCC 29213 incubated for 18 hrs by broth dilution method; type: functional; conditions: ATCC 29213, 18 h
# Staphylococcus aureus [3] = test: Antibacterial activity against resistant Staphylococcus aureus UCN14 incubated for 18 hrs by broth dilution method; type: functional; conditions: UCN14, 18 h
# Escherichia coli [4] = test: Antibacterial activity against resistant Escherichia coli DK2058G incubated for 20 hrs by broth dilution method; type: functional
# Escherichia coli [5] = test: Antibacterial activity against resistant Escherichia coli SQ1712058G incubated for 20 hrs by broth dilution method; type: functional
# Escherichia coli [6] = test: Antibacterial activity against resistant Escherichia coli SQ171 incubated for 20 hrs by broth dilution method; type: functional; conditions: SQ171, 20 h
# Escherichia coli [7] = test: Antibacterial activity against resistant Escherichia coli DK incubated for 20 hrs by broth dilution method; type: functional
# Staphylococcus aureus [8] = test: Antibacterial activity against resistant Staphylococcus aureus UCN18 incubated for 18 hrs by broth dilution method; type: functional; conditions: UCN18, 18 h
# Acinetobacter baumannii [9] = test: Antibacterial activity against multi drug resistant Acinetobacter baumannii ATCC 19606 incubated for 24 hrs by broth dilution method; type: functional; conditions: ATCC 19606 = CIP 70.34 = JCM 6841, 24 h
# Enterococcus faecium [10] = test: Potency index, ratio of solithromycin MIC to compound MIC for multi drug resistant Enterococcus faecium NCTC 7171; type: functional
# Staphylococcus aureus [11] = test: Antibacterial activity against resistant Staphylococcus aureus UCN17 incubated for 18 hrs by broth dilution method; type: functional; conditions: UCN17, 18 h
# Escherichia coli [12] = test: Antibacterial activity against resistant Escherichia coli DK3535 incubated for 20 hrs by broth dilution method; type: functional; conditions: DK3535, 20 h
# Escherichia coli [13] = test: Potency index, ratio of solithromycin MIC to compound MIC for resistant Escherichia coli SQ1712058G; type: functional
# Escherichia coli [14] = test: Potency index, ratio of solithromycin MIC to compound MIC for resistant Escherichia coli SQ171; type: functional
# [15] = Cytotoxicity against African green monkey Vero cells assessed as reduction in cell viability after 72 hrs by MTS/PMS assay; type: cell-based; conditions: chlorocebus sabaeus
# [16] = Selectivity index, ratio of CC50 for African green monkey Vero cells to MIC for multi drug resistant Enterococcus faecium NCTC 7171; type: toxicity; conditions: read-out: Selectivity Index
# Acinetobacter baumannii [17] = test: Potency index, ratio of solithromycin MIC to compound MIC for multidrug-resistant Acinetobacter baumannii ATCC 19606; type: functional, ATCC 19606 = CIP 70.34 = JCM 6841
# Escherichia coli [18] = test: Potency index, ratio of solithromycin MIC to compound MIC for resistant Escherichia coli DK; type: functional
# Escherichia coli [19] = test: Potency index, ratio of solithromycin MIC to compound MIC for resistant Escherichia coli DK3535; type: functional
# Staphylococcus aureus [20] = test: Potency index, ratio of solithromycin MIC to compound MIC for wild type Staphylococcus aureus ATCC 29213; type: functional
SMILES,MIC (Enterococcus faecium [1]) [ng/mL],MIC (Staphylococcus aureus [2]) [µg/mL],MIC (Staphylococcus aureus [3]) [µg/mL],MIC (Escherichia coli [4]) [µg/mL],MIC (Escherichia coli [5]) [µg/mL],MIC (Escherichia coli [6]) [µg/mL],MIC (Escherichia coli [7]) [µg/mL],MIC (Staphylococcus aureus [8]) [µg/mL],MIC (Acinetobacter baumannii [9]) [µg/mL],Ratio (Enterococcus faecium [10]),MIC (Staphylococcus aureus [11]) [µg/mL],MIC (Escherichia coli [12]) [µg/mL],Ratio (Escherichia coli [13]),Ratio (Escherichia coli [14]),CC50 at 72 h [15] [µg/mL],selectivity ratio [16],Ratio (Acinetobacter baumannii [17]),Ratio (Escherichia coli [18]),Ratio (Escherichia coli [19]),Ratio (Staphylococcus aureus [20])
CC[C@H]1OC(=O)[C@@](C)(F)C(=O)[C@H](C)[C@@H](O[C@@H]2O[C@H](C)C[C@H](N(C)C)[C@H]2O)[C@](C)(OC)C[C@@H](C)C(=O)[C@H](C)[C@H]2N(CCCCn3cc(COc4ccccc4)nn3)C(=O)O[C@]12C,12,≤ 0.0625,64,4,> 32,> 32,2,4,25,2,8,4,–,–,–,–,–,–,–,–
CC[C@H]1OC(=O)[C@@](C)(F)C(=O)[C@H](C)[C@@H](O[C@@H]2O[C@H](C)C[C@H](N(C)C)[C@H]2O)[C@](C)(OC)C[C@@H](C)C(=O)[C@H](C)[C@H]2N(CCCCn3cc(-c4ccc(OC)cc4)nn3)C(=O)O[C@]12C,1.5,≤ 0.0625,> 128,2,> 64,64,2,32,25,16,32,2,–,–,–,–,–,–,–,–
CC[C@H]1OC(=O)[C@@](C)(F)C(=O)[C@H](C)[C@@H](O[C@@H]2O[C@H](C)C[C@H](N(C)C)[C@H]2O)[C@](C)(OC)C[C@@H](C)C(=O)[C@H](C)[C@H]2N(CCCCn3cc(-c4cc(OC)cc([N+](=O)[O-])c4)nn3)C(=O)O[C@]12C,1.5,≤ 0.0625,64,2,8,16,4,32,50,16,32,2,4,2,–,–,–,–,–,–
CC[C@H]1OC(=O)[C@@](C)(F)C(=O)[C@H](C)[C@@H](O[C@@H]2O[C@H](C)C[C@H](N(C)C)[C@H]2O)[C@](C)(OC)C[C@@H](C)C(=O)[C@H](C)[C@H]2N(CCCCn3cc(-c4ccsc4)nn3)C(=O)O[C@]12C,0.094,0.25,128,4,> 64,8,4,128,12,256,128,4,–,–,25,270000,2,–,–,–
CC[C@H]1OC(=O)[C@@](C)(F)C(=O)[C@H](C)[C@@H](O[C@@H]2O[C@H](C)C[C@H](N(C)C)[C@H]2O)[C@](C)(OC)C[C@@H](C)C(=O)[C@H](C)[C@H]2N(CCCCn3cc(-c4cnc(N)s4)nn3)C(=O)O[C@]12C,24,0.25,64,1,> 32,> 32,2,64,> 50,–,64,1,–,–,–,–,–,–,–,–
CC[C@H]1OC(=O)[C@@](C)(F)C(=O)[C@H](C)[C@@H](O[C@@H]2O[C@H](C)C[C@H](N(C)C)[C@H]2O)[C@](C)(OC)C[C@@H](C)C(=O)[C@H](C)[C@H]2N(CCCCn3cc(-c4cc(O)cc([N+](=O)[O-])c4)nn3)C(=O)O[C@]12C,0.0059,≤ 0.0625,16,4,> 32,32,0.5,8,25,4096,4,8,–,–,12,2e+06,–,4,–,–
CC[C@H]1OC(=O)[C@@](C)(F)C(=O)[C@H](C)[C@@H](O[C@@H]2O[C@H](C)C[C@H](N(C)C)[C@H]2O)[C@](C)(OC)C[C@@H](C)C(=O)[C@H](C)[C@H]2N(CCCCn3cc(-c4ccc(N)cc4)nn3)C(=O)O[C@]12C,24,≤ 0.031,16,4,> 32,16,1,16,25,–,8,1,–,2,–,–,–,2,2,–
CC[C@H]1OC(=O)[C@@](C)(F)C(=O)[C@H](C)[C@@H](O[C@@H]2O[C@H](C)C[C@H](N(C)C)[C@H]2O)[C@](C)(OC)C[C@@H](C)C(=O)[C@H](C)[C@H]2N(CCCCn3cc(-c4cccs4)nn3)C(=O)O[C@]12C,49,≤ 0.0625,32,1,> 64,32,2,8,6.5,–,8,1,–,–,–,–,4,–,–,–
CC[C@H]1OC(=O)[C@@](C)(F)C(=O)[C@H](C)[C@@H](O[C@@H]2O[C@H](C)C[C@H](N(C)C)[C@H]2O)[C@](C)(OC)C[C@@H](C)C(=O)[C@H](C)[C@H]2N(CCCCn3cc(-c4cccc(NC(C)=O)c4)nn3)C(=O)O[C@]12C,24,0.016,> 128,8,> 64,64,4,64,50,–,64,4,–,–,–,–,–,–,–,4 - 8
CC[C@H]1OC(=O)[C@H](C)[C@@H](O[C@H]2C[C@@](C)(OC)[C@@H](O)[C@H](C)O2)[C@H](C)[C@@H](O[C@@H]2O[C@H](C)C[C@H](N(C)C)[C@H]2O)[C@](C)(O)C[C@@H](C)CN(C)[C@H](C)[C@@H](O)[C@]1(C)O [AZITHROMYCIN],25000,–,–,–,–,–,–,–,–,–,–,–,–,–,–,–,–,–,–,–
CC[C@H]1OC(=O)[C@H](C)[C@@H](O[C@H]2C[C@@](C)(OC)[C@@H](O)[C@H](C)O2)[C@H](C)[C@@H](O[C@@H]2O[C@H](C)C[C@H](N(C)C)[C@H]2O)[C@](C)(O)C[C@@H](C)C(=O)[C@H](C)[C@@H](O)[C@]1(C)O [ERYTHROMYCIN],12000,–,–,–,–,–,–,–,–,–,–,–,–,–,–,–,–,–,–,–
CC[C@H]1OC(=O)[C@@](C)(F)C(=O)[C@H](C)[C@@H](O[C@@H]2O[C@H](C)C[C@H](N(C)C)[C@H]2O)[C@](C)(OC)C[C@@H](C)C(=O)[C@H](C)[C@H]2N(CCCCn3cc(-c4cccc(N)c4)nn3)C(=O)O[C@]12C [SOLITHROMYCIN],24,0.06 to 0.12,8,4,> 32,> 32,2,4,25,–,4,2,–,–,–,–,–,–,–,–
